Assay results taken from PMC9130233, “An inhibitor of RORγ for chronic pulmonary obstructive disease treatment” (Scientific Reports, 2022).
Where two headings read alike, the source gives them in different places.

Tests used:
[1] = test system: IL-17A release in human PBMC; test: IL-17A release, human PBMC, anti-CD3 + anti-CD28; type: cell-based
Text: Inhibition of RORγ by PCCR-1 was also estimated in a functional assay by measuring the inhibition of Th17 dependent cytokine IL-17A release in human peripheral blood mononuclear cells (PBMCs), mouse splenocytes and canine PBMC stimulated with their respective anti-CD3 and anti-CD28 antibodies.
Human whole blood from healthy subjects were procured from Clinical Research Unit, Sanpada. Clinical Research Center Glenmark (Plot No. D, 508, Turbhe, TTC Industrial Area, MIDC, Sanpada, Navi Mumbai, Maharashtra 400705, India). PBMCs were isolated using heparinized blood with Ficoll Histopaque. Briefly, the cells were seeded in 96-well plate pre-coated with human anti-CD3 mAb (10 µg/mL), post 30 min of compound treatment cells were stimulated with human anti-CD28 mAb (2 µg/mL). After 72 h of culture, the supernatant was collected for Th1/Th2 cytokines; IFN-γ, IL-2, IL-4 and IL-10 and measured by ELISA. For Th17 polarization assay, the following cytokine cocktail was used: IL-1β (10 ng/ml), IL-23(10 ng/ml), IL-6 (50 ng/ml), TGF-β1 (3 ng/ml), IL-2 (20U/ml) and supernatants were used for measuring IL-17 and IL-22 by ELISA.

[2] = test system: total leukocytes, neutrophils and macrophages in BAL fluid of cigarette smoke exposed mice; test: Acute cigarette smoke induced pulmonary inflammation mice model; type: in vivo, mouse
Text: Cigarette smoke exposure for 7 days caused significant increase in the total cell count in BAL fluid, including leukocytes, neutrophils and macrophages as compared to an air exposed control group.
Male C57BL/6 mice aged 8–10 weeks were obtained from the animal facility of Glenmark Pharmaceuticals Ltd. All animal experiments were approved by IAEC (institutional Animal Ethics Committee) as per the guideline set up by The Committee for the Purpose of Control and Supervision of Experiments on Animals (CPCSEA), India (CPCSEA is a statutory Committee of Department of Animal Husbandry and Dairying (DAHD), Ministry of Fisheries, Animal Husbandry and Dairying (MoFAH&D), India and constituted under the Prevention of Cruelty to Animals (PCA) Act, 1960., India). All animal experiments and procedures were performed in accordance with CPCSEA and IAEC guidelines and regulations (Registration number 231/2000/CPCSEA).In addition to that, all animal experimentation complies with the guidelines of Animal Research: Reporting In Vivo Experiments (ARRIVE). Male C57BL/6 mice were exposed to either room air or cigarette smoke (CS) from 10 cigarettes (Kentucky Research Cigarettes 3R4F) for 50 min, twice daily for 7 days in a whole body box exposure system (SIU24, ProMech Lab Holding AB, Sweden). […] All aspirates of BAL were pooled and total number of cells were determined using a hemocytometer. […]

CCn1c(C(C)(C)Oc2ccc(F)cc2F)nc2cc(NC(=O)Cc3ccc(S(=O)(=O)CC)cc3)ccc21 [PCCR-1]
IC50 ([1]; TCR activating conditions, comparative Th1/Th2/Th17 study (Fig. 3A), read-out: hIL-17 (IL-17A) IC50): 94.3 nM | IC50 ([1]; anti-CD3 + anti-CD28, n = 24 (Fig. 1D), read-out: Cellular activity: Human IC50, IL-17A release): 117 nM | inhibition of total leukocytes in BAL fluid ([2]; intranasal once a day for 7 days, between 1 µg and 50 µg/animal): dose dependent inhibition | cigarette smoke mediated increase in neutrophil and macrophage counts in BAL fluid ([2]; intranasal, 10, 30, 50 and 100 µg per mouse): significantly obtunded
